Experimental data as given in patent publication US6531628B1, “Substantive water-soluble 2-hydroxy sulfobetaines of cinnamidoalkylamines” (Galaxy Surfactants Ltd., priority 2001, dated 2003).
Entries after “also recorded” stand apart in the source; their conditions may differ.

Experiments:
[1] = Compatibility with anionic surfactant in formulation; assay type: physicochemical; conditions: sodium lauryl ether sulphate based transparent shampoo / transparent bathing bar; N,N-dimethyl ammonium)-2-hydroxy propane-1-sulph
Method: The major ingredients were mixed with heating to 50° C. until a uniform homogeneous mixture was formed. The resulting mixture was then cooled to room temperature with continuous stirring. The required chelating agent, colour, perfume were added. The viscosity was adjusted to 2500 cps with sodium chloride.
All ingredients were heated together under stirring to 70° C. till the reaction mass became homogenous and transparent. The reaction mass was cooled to 40° C. and the required amounts of chelating agents, perfume and colour were added. The molten mass was cast in moulds of desired shape to yield transparent bathing bar.

[2] = Molar extinction coefficient (UV absorption); assay type: physicochemical; conditions: at λmax 306 nm in water

COc1ccc(C=CC(=O)NCCC[N+](C)(C)CC(O)CS(=O)(=O)[O-])cc1 (centres unmarked) [Example I, 3-(N-p-Methoxy Cinnamidopropyl, N,N-Dimethyl Ammonium)-2-hydroxy Propane-1-sulphonate]
compatibility with anionic surfactant [1]: completely compatible; also recorded: total compatibility
molar extinction coefficient, ∈ [2]: 24,000
